Laboratory results published in DBAASP.
Converted amounts (≈) assume the structure as drawn.

How the values were obtained:
Experiment in all cases: ≥ marks a high value that may be exact or a test limit, other limits are often not marked, values filed in µg/mL are converted to µM
[1] = tested on: Staphylococcus epidermidis
Escherichia coli = tested on: Escherichia coli
Staphylococcus aureus = tested on: Staphylococcus aureus
Candida albicans = tested on: Candida albicans
Bacillus subtilis = tested on: Bacillus subtilis
[2] = tested on: Staphylococcus aureus ATCC 25923
[3] = tested on: Escherichia coli ATCC 25922
Pseudomonas aeruginosa = tested on: Pseudomonas aeruginosa
[4] = tested on: Pseudomonas aeruginosa ATCC 27853
[5] = tested on: Candida albicans ATCC 2002
Escherichia coli UB1005 = tested on: Escherichia coli UB1005
[6] = tested on: Pseudomonas aeruginosa PAO1

Row | Compound | MIC (Escherichia coli) [µM] | MIC (Staphylococcus aureus) [µM] | MIC (Candida albicans) [µM] | MIC (Bacillus subtilis) [µM] | also measured
1 | CC[C@H](C)[C@H](NC(=O)[C@H](CO)NC(=O)[C@@H](NC(=O)[C@H](CCCCN)NC(=O)[C@H](Cc1ccccc1)NC(=O)[C@@H]1CCCN1C(=O)[C@@H](N)CCC(=O)O)[C@@H](C)CC)C(=O)N[C@@H](Cc1cnc[nH]1)C(=O)N[C@@H](CC(C)C)C(=O)NCC(=O)NCC(=O)N[C@@H](Cc1ccc(O)cc1)C(N)=O [EPFKISIHLGGY] | – | – | – | – | MIC [1]: ≥ 220 µM
2 | CC[C@H](C)[C@@H]1NC(=O)[C@H](CCCCN)NC(=O)[C@@H](NC(=O)[C@H](CCCCN)NC(=O)[C@H](CC(C)C)NC(=O)[C@H](CC(N)=O)NC(=O)[C@H](CC(=O)O)NC(=O)[C@H](CC(C)C)NC(=O)[C@H](CC(C)C)NC(=O)[C@@H](NC(=O)[C@@H](NC(=O)[C@H](C)NC(=O)[C@@H](NC(=O)[C@H](CC(N)=O)NC(=O)[C@H](CCCCN)NC(=O)[C@H](C)NC(=O)[C@H](C)NC(=O)[C@H](CC(N)=O)NC(=O)[C@H](CCCCN)NC(=O)[C@H](C)NC(=O)[C@@H](NC(=O)[C@H](CC(=O)O)NC(=O)[C@H](CCSC)NC(=O)[C@H](Cc2ccccc2)NC(=O)CN)[C@@H](C)O)C(C)C)C(C)C)[C@@H](C)O)CSSC[C@@H](C(=O)O)NC(=O)[C@H](C)NC(=O)[C@H](CCCCN)NC(=O)[C@H]([C@@H](C)O)NC1=O [GFMDTAKNAAKNVAVTLLDNLKCKITKAC] | 1.36 (≈ 4.2 µg/mL) | 0.681 (≈ 2.1 µg/mL) | 0.341 (≈ 1.05 µg/mL) | 2.72 (≈ 8.39 µg/mL) | –
3 | CC[C@H](C)[C@H](NC(=O)[C@H](CO)NC(=O)CNC(=O)[C@H](CCCN=C(N)N)NC(=O)[C@@H](NC(=O)[C@H](CO)NC(=O)[C@@H](NC(=O)CNC(=O)[C@H](CO)NC(=O)[C@H](CC(C)C)NC(=O)[C@H](CC(C)C)NC(=O)CN)[C@@H](C)O)C(C)C)C(=O)O [GLLSGTSVRGSI] | 31.4 (≈ 36 µg/mL) | 15.7 (≈ 18 µg/mL) | 7.85 (≈ 9 µg/mL) | 15.7 (≈ 18 µg/mL) | –
4 | CC[C@H](C)[C@H](NC(=O)[C@@H](NC(=O)[C@@H](NC(=O)[C@@H]1CCCN1C(=O)[C@H](Cc1c[nH]c2ccccc12)NC(=O)[C@H](Cc1ccccc1)NC(=O)[C@H](CCCN=C(N)N)NC(=O)[C@H](CCCCN)NC(=O)[C@@H](NC(=O)[C@@H](N)CCCN=C(N)N)[C@@H](C)CC)C(C)C)C(C)C)C(=O)N[C@@H](CCCN=C(N)N)C(=O)N[C@H](C(=O)N[C@H](C(=O)N[C@H](C(=O)N[C@@H](C)C(=O)NCC(=O)N[C@@H](Cc1ccc(O)cc1)C(=O)O)C(C)C)C(C)C)[C@@H](C)O [RIKRFWPVVIRTVVAGY] | – | – | – | – | MIC [5]: ≥ 36.4 µM
5 | CC[C@H](C)[C@H](NC(=O)[C@@H](NC(=O)[C@@H](NC(=O)[C@@H]1CCCN1C(=O)[C@H](Cc1c[nH]c2ccccc12)NC(=O)[C@H](Cc1ccccc1)NC(=O)[C@H](CCCN=C(N)N)NC(=O)[C@H](CCCCN)NC(=O)[C@@H](NC(=O)[C@@H](N)CCCN=C(N)N)[C@@H](C)CC)C(C)C)C(C)C)C(=O)N[C@@H](CCCN=C(N)N)C(=O)N[C@H](C(=O)N[C@H](C(=O)N[C@H](C(=O)N[C@@H](C)C(=O)NCC(=O)O)C(C)C)C(C)C)[C@@H](C)O [RIKRFWPVVIRTVVAG] | – | – | – | – | MIC [5]: ≥ 79.1 µM
6 | CC[C@H](C)[C@H](NC(=O)[C@H](CCCCN)NC(=O)[C@H](CS)NC(=O)[C@H](C)NC(=O)[C@@H](NC(=O)[C@H](Cc1ccccc1)NC(=O)CNC(=O)[C@H](CC(C)C)NC(=O)CNC(=O)[C@@H](NC(=O)[C@H](CCCCN)NC(=O)CNC(=O)[C@H](CC(C)C)NC(=O)[C@H](CC(N)=O)NC(=O)[C@H](CCCCN)NC(=O)[C@H](CC(C)C)NC(=O)[C@@H](NC(=O)[C@H](CCCCN)NC(=O)[C@H](CC(C)C)NC(=O)[C@H](CCSC)NC(=O)[C@@H](N)CO)C(C)C)C(C)C)C(C)C)C(=O)N[C@@H](CC(N)=O)C(=O)N[C@@H](CCCCN)C(=O)N[C@@H](CCC(N)=O)C(=O)N[C@@H](CS)C(=O)O [SMLKVLKNLGKVGLGFVACKINKQC] | 10 (≈ 26.9 µg/mL) | 20 (≈ 53.8 µg/mL) | 40 (≈ 108 µg/mL) | – | –
7 | CC[C@H](C)[C@H](NC(=O)[C@H](CCCCN)NC(=O)[C@H](C)NC(=O)[C@H](C)NC(=O)[C@@H](NC(=O)[C@H](Cc1ccccc1)NC(=O)CNC(=O)[C@H](CC(C)C)NC(=O)CNC(=O)[C@@H](NC(=O)[C@H](CCCCN)NC(=O)CNC(=O)[C@H](CC(C)C)NC(=O)[C@H](CC(N)=O)NC(=O)[C@H](CCCCN)NC(=O)[C@H](CC(C)C)NC(=O)[C@@H](NC(=O)[C@H](CO)NC(=O)[C@H](CC(C)C)NC(=O)[C@H](CCSC)NC(=O)[C@@H](N)CO)C(C)C)C(C)C)C(C)C)C(=O)N[C@@H](C)C(=O)N[C@@H](CCCCN)C(=O)N[C@@H](CCC(N)=O)C(=O)N[C@@H](C)C(=O)O [SMLSVLKNLGKVGLGFVAAKIAKQA] | 20 (≈ 50.9 µg/mL) | 100 (≈ 254 µg/mL) | 100 (≈ 254 µg/mL) | – | –
8 | CSCC[C@H](NC(=O)[C@H](CCSC)NC(=O)[C@H](CCCCN)NC(=O)[C@H](CCCCN)NC(=O)CNC(=O)[C@H](CC(C)C)NC(=O)[C@H](CCCCN)NC(=O)[C@H](CC(C)C)NC(=O)[C@H](Cc1c[nH]c2ccccc12)NC(=O)[C@H](CC(N)=O)NC(=O)[C@@H](N)CO)C(=O)N[C@@H](CO)C(=O)N[C@@H](C)C(=O)N[C@@H](CC(C)C)C(N)=O [SNWLKLGKKMMSAL] | 100 (≈ 161 µg/mL) | – | – | ≥ 40 | –
9 | CC[C@H](C)[C@H](NC(=O)[C@H](CCCN=C(N)N)NC(=O)[C@H](CCCCN)NC(=O)[C@@H]1CCCN1C(=O)[C@@H]1CCCN1C(=O)[C@H](CCCN=C(N)N)NC(=O)[C@@H]1CCCN1C(=O)[C@H](CCCN=C(N)N)NC(=O)[C@@H]1CCCN1C(=O)[C@H](CC(C)C)NC(=O)[C@H](Cc1ccc(O)cc1)NC(=O)[C@@H]1CCCN1C(=O)[C@@H]1CCCN1C(=O)[C@H](CCCCN)NC(=O)[C@H](CC(=O)O)NC(=O)[C@@H](N)C(C)C)C(=O)N[C@@H](Cc1ccc(O)cc1)C(=O)N[C@@H](CC(N)=O)C(=O)N[C@@H](CCCN=C(N)N)C(N)=O [VDKPPYLPRPRPPKRIYNR] | – | – | – | – | MIC [2]: 27.1 µM (≈ 64 µg/mL); MIC (Escherichia coli UB1005): 0.254 µM (≈ 0.6 µg/mL); MIC [6]: 27.1 µM (≈ 64 µg/mL)
10 | CC(C)C[C@H](NC(=O)[C@H](Cc1ccc(O)cc1)NC(=O)[C@@H]1CCCN1C(=O)[C@@H]1CCCN1C(=O)[C@H](CCCCN)NC(=O)[C@H](CC(=O)O)NC(=O)[C@@H](N)C(C)C)C(=O)N1CCC[C@H]1C(=O)N[C@@H](CCCN=C(N)N)C(=O)N1CCC[C@H]1C(=O)N[C@@H](CCCN=C(N)N)C(=O)N1CCC[C@H]1C(=O)N1CCC[C@H]1C(=O)N[C@@H](CCCN=C(N)N)C(=O)N[C@@H](CCCN=C(N)N)C(=O)N[C@@H](CCCCN)C(=O)N[C@@H](Cc1ccc(O)cc1)C(=O)N[C@@H](CC(N)=O)C(=O)N[C@@H](CCCN=C(N)N)C(N)=O [VDKPPYLPRPRPPRRKYNR] | – | – | – | – | MIC [2]: 13.3 µM (≈ 32 µg/mL); MIC (Escherichia coli UB1005): 1.04 µM (≈ 2.5 µg/mL); MIC [6]: 26.6 µM (≈ 64 µg/mL)

Further lines, with some results ahead:

Row | MIC (Escherichia coli) [µM] | MIC (Staphylococcus aureus) [µM] | MIC (Candida albicans) [µM] | MIC (Bacillus subtilis) [µM] | Compound | also measured
11 | 15.1 (≈ 32 µg/mL) | 3.78 (≈ 8 µg/mL) | 3.78 (≈ 8 µg/mL) | – | CC[C@H](C)[C@H](NC(=O)[C@H](CC(=O)O)NC(=O)[C@H](CC(C)C)NC(=O)[C@H](Cc1ccccc1)NC(=O)CN)C(=O)N[C@H](C(=O)N[C@@H](CCCCN)C(=O)NCC(=O)N[C@H](C(=O)NCC(=O)N[C@@H](CCCCN)C(=O)N[C@H](C(=O)N[C@@H](C)C(=O)N[C@@H](CC(C)C)C(=O)NCC(=O)N[C@@H](C)C(=O)N[C@H](C(=O)N[C@@H](CO)C(=O)N[C@@H](CCCCN)C(=O)N[C@@H](CC(C)C)C(=O)N[C@@H](Cc1ccccc1)C(N)=O)C(C)C)C(C)C)C(C)C)C(C)C [GFLDIVKGVGKVALGAVSKLF] | –
12 | 5.5 (≈ 10.5 µg/mL) | – | – | 27.2 (≈ 52 µg/mL) | CC[C@H](C)[C@H](N)C(=O)N[C@@H](CC(N)=O)C(=O)N[C@@H](Cc1c[nH]c2ccccc12)C(=O)N[C@@H](CCCCN)C(=O)N[C@@H](CCCCN)C(=O)N[C@H](C(=O)N[C@@H](C)C(=O)N[C@@H](CO)C(=O)N[C@H](C(=O)NCC(=O)N[C@@H](CCCCN)C(=O)N[C@@H](CCC(=O)O)C(=O)N[C@H](C(=O)N[C@@H](CC(C)C)C(=O)N[C@@H](CCCCN)C(=O)N[C@@H](C)C(=O)N[C@H](C(N)=O)[C@@H](C)CC)C(C)C)[C@@H](C)CC)[C@@H](C)CC [INWKKIASIGKEVLKAI] | –
13 | 100 (≈ 160 µg/mL) | – | – | ≥ 100 | CC[C@H](C)[C@H](N)C(=O)N[C@@H](CC(N)=O)C(=O)N[C@@H](Cc1c[nH]c2ccccc12)C(=O)N[C@@H](CCCCN)C(=O)N[C@@H](CCCCN)C(=O)N[C@H](C(=O)N[C@@H](C)C(=O)N[C@@H](CO)C(=O)N[C@H](C(=O)NCC(=O)N[C@@H](CCCCN)C(=O)N[C@@H](CCC(=O)O)C(=O)N[C@H](C(=O)N[C@@H](CC(C)C)C(N)=O)C(C)C)[C@@H](C)CC)[C@@H](C)CC [INWKKIASIGKEVL] | –
14 | 12.7 (≈ 31.2 µg/mL) | 50.8 (≈ 125 µg/mL) | 102 (≈ 250 µg/mL) | – | CC[C@H](C)[C@H](NC(=O)[C@H](CC(C)C)NC(=O)[C@@H]1CCCN1C(=O)[C@H](CS)NC(=O)[C@H](CC(C)C)NC(=O)CNC(=O)[C@@H]1CCCN1C(=O)[C@H](CCCCN)NC(=O)[C@H](CCCCN)NC(=O)[C@@H]1CCCN1C(=O)[C@H](CCCN=C(N)N)NC(=O)[C@H](CC(=O)O)NC(=O)[C@@H](N)CCCCN)C(=O)N[C@@H](Cc1c[nH]c2ccccc12)C(=O)N[C@@H](Cc1c[nH]c2ccccc12)C(=O)N[C@@H](CC(C)C)C(=O)N[C@H](C(=O)N[C@H](C(=O)N[C@@H](CCCCN)C(=O)N[C@H](C(=O)NCC(N)=O)C(C)C)[C@@H](C)CC)[C@@H](C)CC [KDRPKKPGLCPLIWWLIIKVG] | MIC [2]: 50.8 µM (≈ 125 µg/mL); MIC [3]: 6.35 µM (≈ 15.6 µg/mL); MIC (Pseudomonas aeruginosa): 25.4 µM (≈ 62.5 µg/mL); MIC [4]: 25.4 µM (≈ 62.5 µg/mL)
